Reference: ChEMBL document CHEMBL3507680, “University of Dundee, Gates Library screen for HepG2 cell viability”

Test: Human HepG2 cell viability assay in 384 well format
Assay type: toxicity, cell-based
Parameters: dose 125 nL, time 70.5 hour; concentration not given beside the values
Details: HepG2 cells, read-out: Inhibition

| Compound | cytotoxicity at 70.5 h [%] |
| --- | --- |
| Cc1occc1C(=O)N1CCC2(CC1)CC(c1cccnc1)C(=O)N2C (configuration not stated) | -17.4 |
| O=C(c1ccncn1)N1CCO[C@H]2[C@@H](OCc3cccnc3)CC[C@@H]21 | -9.05 |
| CCOCC1CN(C(=O)N(C)C)Cc2nn(C)cc21 (configuration not stated) | -5.53 |
| Cc1cc(C(=O)N2CC[C@H](OCC3CC3)[C@@H]2Cc2cccnc2)no1 | -4.43 |
| CN(Cc1ccco1)C[C@H]1OC[C@@H]2CCN(Cc3nccs3)C[C@@H]21 | -10.1 |
| Cc1oncc1C(=O)N1CCC2(CC1)CC(c1ccccc1)C(=O)N2C (configuration not stated) | -19 |
| Cc1cnc(N2CCC3(CCCN(c4ccc(C)nn4)C3)C2)nc1 (configuration not stated) | 14.4 |
| COCC(=O)N1CCC(c2nc3ccc(-c4ccccc4)cn3n2)CC1 | -7.3 |
| Cc1ccnn1CCC(=O)N1CCCC2(C1)NC(=O)c1ccccc1O2 (configuration not stated) | -2.25 |
| Cc1c(CN2CCCC(n3c(=O)oc4ccccc43)C2)cnn1C (configuration not stated) | 17.2 |
| Cn1cc(CN2CCCC(n3c(=O)oc4ccccc43)C2)cn1 (configuration not stated) | -0.583 |
| COc1nc2cc(C)ccc2cc1CN(C)Cc1n[nH]c2c1CCCC2 | 2.69 |
| COCC(=O)N1CCC(c2cc3nc(C)cc(C(F)(F)F)n3n2)CC1 | 25.3 |
| CCN(CC)S(=O)(=O)c1cc2c3c(c1)c(C)cc(=O)n3CCC2 | 36 |
| CC(C)N1CCCCC1c1cncc(Cl)n1 (configuration not stated) | 17.6 |
| CNc1cc(C)nc(C2COCCN2CCc2ccc(F)cc2)n1 (configuration not stated) | -4.38 |
| CN1C(=O)CO[C@H]2CCN(C(=O)Cc3ccc4c(c3)CCCC4)CC[C@@H]21 | -4.91 |
| CC(C)N1C(=O)CO[C@H]2CCN(C(=O)c3ccc4c(c3)CCC4)CC[C@@H]21 | -3.57 |
| O=C(CCc1ccccc1F)NC1CCCN(c2ccccn2)C1 (configuration not stated) | -5.74 |
| Cc1oc2c(c1C(=O)N1C[C@H](O)[C@]3(CCCO3)C1)CCCC2 | -3.22 |
| CC(C)N1CCC(Cn2cc(C(N)=O)cn2)CC1 | 11.9 |
| CCOc1ccc(CN2CCC(c3ccn[nH]3)C2)cc1CO (configuration not stated) | 3.78 |
| CN(CC1CCOCC1)C1CCCN(c2ccccn2)C1 (configuration not stated) | -7.08 |

| Compound | cytotoxicity at 70.5 h [%] |
| --- | --- |
| COc1ccc2c(c1)C(=O)NC1(CC2)CCN(Cc2ccc(F)cc2)C1 (configuration not stated) | 5.75 |
| COc1ccc2c(c1)C(=O)NC1(CC2)CCN(Cc2ccccn2)C1 (configuration not stated) | -1 |
| CN(C1CCCN(c2ccccn2)C1)S(=O)(=O)N1CCOCC1 (configuration not stated) | -2.35 |
| CC(C)N1CCOC(c2cc(CCO)[nH]n2)C1 (configuration not stated) | -1.76 |
| C[C@@]1(O)CCN(C2CCOCC2)C[C@H]1n1ccc(=O)[nH]c1=O | -3.9 |
| CC(C)n1nnc(CC(=O)NCC2(c3ccccc3F)CCCC2)n1 | -10.2 |
| Cc1cc(C)nc(Nc2cc(C)nc(C3CCN(C(C)C)C3)n2)n1 (configuration not stated) | -5.15 |
| Cc1ncsc1-c1nnc(C2CCCN2C(=O)CCn2cccn2)o1 (configuration not stated) | -9.26 |
| CSCC[C@@H]1CN2CCC[C@H]2CN1Cc1coc2ccc(Cl)cc2c1=O | -5.47 |
| CS(=O)(=O)NCC(=O)NC1CCCN(c2ccccn2)C1 (configuration not stated) | -9.78 |
| CNC(=O)c1sc2ccccc2c1CC1CCCCN1Cc1ncc[nH]1 (configuration not stated) | -7.25 |
| O=C1CN(C(=O)C2CN(c3cccc(F)c3)CCO2)CCN1 (configuration not stated) | -5.92 |
| Cc1ccc2[nH]c(C3CCN(C)CC3)nc2c1 | 12.7 |
| CCCN1CCCC(O)(c2nc(C)c(COc3ccccc3)s2)CC1 (configuration not stated) | 13.4 |
| CS(=O)(=O)N1CCCC(Cc2cnc(Br)cn2)C1 (configuration not stated) | 22.6 |
| CNc1cc(C(=O)N2CCOC(C(=O)NC3CCCC3)C2)ccn1 (configuration not stated) | -2.84 |
| CN1CCCC(c2cncc(-c3cccc(C(F)(F)F)c3)n2)C1 (configuration not stated) | -8.63 |
| Cc1cc(C)nc(N2CCC(c3c(C(N)=O)sc4ccccc34)C2)n1 (configuration not stated) | -3.24 |
| CS(=O)(=O)N1C[C@@H](O)[C@H](N2CCN(c3ccccc3)CC2)C1 | 22.6 |
| Cc1nnc(C2CCN(c3ncccn3)CC2)o1 | -15 |
| NC(=O)c1ccc(C2CN(Cc3ccc(F)cc3)CCO2)nc1 (configuration not stated) | 27.6 |
| c1ccc(Oc2nccnc2C2CCN(C3CCOCC3)CC2)cc1 | -7.7 |
| Cc1cc(C2CCCN(S(=O)(=O)N(C)C)C2)ccn1 (configuration not stated) | 23.8 |

| Compound | cytotoxicity at 70.5 h [%] |
| --- | --- |
| CCCNC(=O)Nc1ncc(-c2cccnc2)s1 | -9.71 |
| CC(C)NC(=O)Nc1ncc(-c2cccnc2)s1 | -4.04 |
| CNC(=O)c1cn[nH]c1C1CCCN1c1nc(C)cc(C)n1 (configuration not stated) | -3.88 |
| Cc1cnc(CC2COCCN(C(=O)CN3CCOCC3)C2)cn1 (configuration not stated) | -4.65 |
| COc1ccc(CC2CN(Cc3cncn3C)CCO2)cc1 (configuration not stated) | -9.57 |
| Cc1nc(N)cc(C2CN(C(=O)c3cscn3)CCO2)n1 (configuration not stated) | -10.9 |
| O=C(O)c1ccccc1-c1cnc(Cn2c(=O)cc[nH]c2=O)s1 | -6.43 |
| Cc1cc(C)nc(C2CCN(C3CCCCC3)C2)n1 (configuration not stated) | -5.66 |
| CC(=O)N[C@@H]1CN(C(=O)Cc2coc3cc(C)ccc23)C[C@H]1O | -2.72 |
| CCn1ncc(C(=O)NCCc2nc(-c3cccnc3)n[nH]2)c1C | -3.1 |
| CCn1ncc(C(=O)NCCc2nc(-c3ccncc3)n[nH]2)c1C | -7.04 |
| CC(C)CC(NC(=O)c1cccs1)c1nc2cccnc2n1C (configuration not stated) | -5.14 |
| CC[C@H](Cn1ncc2ccccc2c1=O)NC(=O)c1cnc(C)cn1 | -12.4 |
| CC[C@H](Cn1ncc2ccccc2c1=O)NC(=O)c1ccccn1 | -7.7 |
| CC[C@@H](Cn1ncc2ccccc2c1=O)NC(=O)c1cnc(C)cn1 | -6.57 |
| CNc1ncc(CN(C)CCN2CCCCC2)cn1 | 36.6 |
| CC(C(=O)N(Cc1ccc(C#N)cc1)CC(F)(F)F)S(C)(=O)=O (configuration not stated) | -10.1 |
| Cc1nc(CNC(=O)NC2CC(C)(C)OC2(C)C)sc1C (configuration not stated) | -9.18 |
| Cc1ccc(-c2nc(CC(=O)NCC3CCCN(C(C)C)C3)cs2)o1 (configuration not stated) | 11.1 |
| O=C(CCC(=O)N1CCc2ccccc2C1)c1cccs1 | 2.72 |
| COCc1nc(-c2ccc(S(=O)(=O)N3CCCC3)cc2)cs1 | -3.85 |
| CC(c1ccccc1F)N(CC(N)=O)C1CC1 (configuration not stated) | -4.03 |
| CCC(=O)c1ccc(OCC(=O)NCC2CCCO2)cc1 (configuration not stated) | 0.0654 |

| Compound | cytotoxicity at 70.5 h [%] |
| --- | --- |
| CN(Cc1ccc(F)c(F)c1)C(=O)CCc1nc(-c2nnc[nH]2)no1 | -4.47 |
| CCOCCNC(=O)c1cnc(Sc2nccn2C)c(Cl)c1 | 2.36 |
| COCCN1CCC(CNc2nc3ccccc3o2)CC1 | 1.47 |
| COCCN1CCC(CNc2cnc3ccccc3n2)CC1 | -1.83 |
| CN1CCN(C(=O)c2cn(-c3ccc(C(F)(F)F)cn3)nn2)CC1 | -6.96 |
| CCN(CC)C(=O)c1cnc(Sc2nccn2C)c(Cl)c1 | -3.32 |
| CCc1ccc2c(c1)C(CCNC(=O)Cc1ccc(F)cc1)C(=O)N2 (configuration not stated) | 11.8 |
| CCc1ccc2c(c1)C(CCNC(=O)Cc1cccc(F)c1)C(=O)N2 (configuration not stated) | -4.81 |
| CC(c1ccccc1Cl)N(C(=O)CSCC(N)=O)C1CC1 (configuration not stated) | 12.5 |
| CN(CC1CC1)C(=O)c1cc2c(c(S(N)(=O)=O)c1)CCC2 | 2.25 |
| CCOc1cc(CNC(=O)NC2CC=CC2)ccc1OC(F)F | -5.65 |
| Cc1ccc(-n2cc(C)cn2)c(NC(=O)NC2(C)CCOC2)c1 (configuration not stated) | -2.69 |
| CCOc1cccc(CNC(=O)NC2CC=CC2)c1OC(F)F | 0.101 |
| Cc1ccc(Cl)c(NC(=O)NC2(C)CCOC2)c1 (configuration not stated) | -5.5 |
| Cc1ccc(-n2nnnc2SCN2CCCCC2=O)cc1C | -3.89 |
| CCc1ccc(C(=O)N2CCC(N(C)C(=O)OC(C)(C)C)C2)o1 (configuration not stated) | 0.0812 |
| CN(Cc1ccccc1)C(=O)c1cc2c(c(S(N)(=O)=O)c1)CCC2 | 30.7 |
| Cc1ccc(CN(C)C(=O)c2cc3c(c(S(N)(=O)=O)c2)CCC3)o1 | -1.72 |
| NS(=O)(=O)c1ccc(NCc2ccccc2F)cc1C(F)(F)F | 1.33 |
| Cc1cc(CN2CCN(Cc3ccc(C#N)cc3F)CC2)no1 | 1.27 |
| COc1ccc(NC(=O)N2CCN(CCSc3ccccc3)CC2)cc1 | 3.81 |
| Cc1cc(C2CCCN2C(=O)c2csc(-c3cnn(C)c3)n2)on1 (configuration not stated) | 2.44 |
| CCn1cc(NC(=O)N2CCN(C(=O)Oc3ccccc3)CC2)cn1 | -4.12 |

| Compound | cytotoxicity at 70.5 h [%] |
| --- | --- |
| Cc1cc(C2CCCN2C(=O)Nc2cn[nH]c2)on1 (configuration not stated) | -4.06 |
| CS(=O)(=O)c1ccccc1-n1cc(NC(=O)CC(F)(F)F)cn1 | -4.54 |
| CC(C)(C)CC(=O)Nc1cnn(-c2ccccc2S(C)(=O)=O)c1 | -5.49 |
| Cn1cc([C@@H]2CN(S(=O)(=O)c3cccnc3)C[C@H]2N)c2ccncc21 | 24 |
| COc1ccccc1C(=O)N1CCNCC1C(N)=O (configuration not stated) | -2.25 |
| COc1cccc2[nH]c(C(=O)N3CCNCC3C(N)=O)cc12 (configuration not stated) | 10.8 |
| Nc1ccc(-c2cnc(C3CCCN3)cn2)cn1 (configuration not stated) | -8.2 |
| CS(=O)(=O)c1ccc(-c2cnc(C3CCCN3)cn2)cc1 (configuration not stated) | -11.3 |
| Cc1nc(-c2ccccc2)cc(C2CCNCC2)n1 | 7.58 |
| CC(CN1CCOCC1)n1cncc1-c1ccc2c(c1)CCCN2C (configuration not stated) | -10.1 |
| CC(=O)NC1CCN(c2cc(C3CCNCC3)ccn2)CC1 | -2.92 |
| CCn1cc2c(n1)CN(C(=O)c1ccncc1)CC2COCC1CC1 (configuration not stated) | -25.7 |
| Cc1ccc(CN2CC(C(=O)Nc3ccccc3)C3(CCOCC3)C2)s1 (configuration not stated) | -13.1 |
| Cn1cc(C(=O)N[C@@H]2CN(Cc3cccs3)[C@@H]3CCCO[C@@H]32)cn1 | -14.7 |
| Cc1nc(CN2C(=O)COC3(CCN(Cc4ccco4)CC3)C2C)cs1 (configuration not stated) | -1.55 |
| CC(C)N(C)Cc1cn2c(n1)CN(C(=O)Cc1ccsc1)CC2 | 0.0105 |
| COc1ccc(CN2C[C@@H](OCc3csc(C)n3)[C@H]3COC[C@H]32)cc1 | -3.55 |
| Cc1nc(CO[C@@H]2CN(Cc3cnn(C)c3)[C@@H]3COC[C@@H]32)cs1 | 5.43 |
| Cc1cc(C(F)(F)F)n2nc(C3CCCN3C3CCSCC3)cc2n1 (configuration not stated) | -2.47 |
| CC(=O)N1CCC(N2CCC(c3nc(C)cc(C)n3)C2)CC1 (configuration not stated) | -3.99 |
